Experimental data: patent US20050032787A1, “Pheny (alkyl)carboxylic acid derivatives and dionic phenylalkylheterocyclic derivatives and their use as medicines with serum glucose and/or serum lipid lowering activity” (priority 2002, published 2005)
Structures can show the parent of a compound that is named as a salt. Marks after values point to notes of the source that are not given here.

Legend:
C57BL/KsJ db/db mice = test: Antidiabetic and serum lipid lowering activity in db/db mice; settings: oral twice daily for a fortnight, rosiglitazone 5 mg/kg, Example 22 25 mg/kg, vs control; for Reduction of glucose levels % / Reduction of triglyceride levels %: serum 7 hours after last treatment; for Change in GPT levels % / Change in HDL-cholesterol levels %: serum
3T3-L1 cells = test: Determination of glucose consumption in differentiated 3T3-L1 cells; format: cell-based, mouse; settings: 22 hours, glucose 25 mM, insulin 0.25 nM, concentrations assayed 1, 5, 10, 25 μM
Experimental: Determination of Glucose Consumption in 3T3-L1 Cells
Glucose consumption was assessed in differentiated 3T3-L1 cells.
Mouse fibroblasts (3T3-L1) were seeded at a density of 5×10^3/cm^2 and cultured on 12-well plates in 1 ml of DMEM containing glucose 25 mM and added with 10% CS, glutamine 4 mM, pyruvate 1 mM, penicillin 50 U/ml, and streptomycin 50 μg/ml, in an atmosphere humidified with 5% CO2 at 37° C.
Two to three days after confluence, differentiation was induced with the addition of 1.5 ml of DMEM containing 3-isobutyl-1-methylxanthine (IBMX) 0.5 mM, dexamethazone 1 μM and porcine insulin 10 μg/ml in glucose 25 mM and 10% FBS.
After 2 days, the cells were exposed to the same medium without IBMX and dexamethazone for another 2 days. […]
The cells were used 10-12 days after induction of differentiation, as monitored by evaluating triglyceride accumulation. […]
The analysis of the glucose in the medium was done with the aid of a Cobas Mira S autoanalyzer (Roche), using the HK 125 Glucose Kit (ABX Diagnostics). The glucose concumprion stimulated by the products was evaluated as % increase compared to the control compound. […]

Row | Compound | melting point | other results
1 | O=C(O)C(Cc1ccc(OCCn2ccc3ccccc32)cc1)C(=O)O [Example 5, 4-[2-(1-indolyl)ethoxy]benzylmalonic acid] | 112 to 114 °C | –
2 | O=C1NC(=O)C(=Cc2ccc(OCCc3ccc(Cl)cc3)cc2)S1 [Example 20, 5-[4-[2-(4-chlorophenyl)ethoxy]phenylmethylene]thiazolidine-2,4-dione] | 202 to 203 °C | –
3 | COC(=O)CCc1ccc(OCCn2ccc3ccccc32)cc1 [Example 8, methyl 3-[4-[2-(1-indolyl)ethoxy]phenyl]-propanoate] | 85 °C | –
4 | COC(=O)C(Cc1cccc(OC(=O)NCc2ccc(OC)cc2)c1)C(=O)OC | 62 to 64 °C | –
5 | CCCCc1ccc(NC(=O)Oc2ccc(CC(C(=O)OC)C(=O)OC)cc2)cc1 | 90 to 92 °C | –
6 | COC(=O)C(Cc1ccc(OC(=O)NCc2ccc(OC)cc2)cc1)C(=O)OC (as salt: malonate) | 78.6 °C | –
7 | CCOC(=O)[C@H](Cc1ccc(OC(=O)NCc2ccc(OC)cc2)cc1)NC(=O)c1ccccc1 | 149 to 151 °C | –
8 | COC(=O)C(=Cc1ccc(OCCn2ccc3ccccc32)cc1)C(=O)OC [Example 3, dimethyl 4-[2-(1-indolyl]ethoxy]benzylidenemalonate] | 68 to 70 °C | –
9 | COC(=O)C(O)Cc1ccc(OCCn2ccc3ccccc32)cc1 (centres unmarked) [Example 12, methyl 2-hydroxy-3-[4-[2-(1-indolyl)ethoxy]-phenyl]propanoate] | 70 to 72 °C | –
10 | O=C1NC(=O)C(=Cc2cccc(OCCc3ccc(Cl)cc3)c2)S1 [Example 46, 5-[3-[2-(4-chlorophenyl)ethoxy]phenylmethylene]thiazolidine-2,4-dione] | 186 to 187 °C | –
11 | CN(CCOc1ccc(CC2SC(=O)NC2=O)cc1)c1ccccn1 (centres unmarked) [Rosiglitazone, rosiglitazone, reference compound] | – | Reduction of glucose levels % (C57BL/KsJ db/db mice): −36 Δ %; Reduction of triglyceride levels % (C57BL/KsJ db/db mice): −41 ▴ %; Change in GPT levels % (C57BL/KsJ db/db mice): +117 ▴ %; Change in HDL-cholesterol levels % (C57BL/KsJ db/db mice): −7%; lowest concentration of those assayed to induce a 40% increase in glucose consumption (3T3-L1 cells): 5 µM
12 | COC(=O)C(Cc1ccc(OC(=O)Nc2ccc(Cl)cc2)cc1)C(=O)OC | 125 to 127 °C | –
13 | O=C1NC(=O)C(Cc2ccc(OCCc3ccc(Cl)cc3)cc2)S1 (centres unmarked) [Example 21, 5-[4-[2-(4-chlorophenyl)ethoxy]phenylmethyl]-thiazolidine-2,4-dione] | 147 to 148 °C | –
14 | COC(=O)C(Cc1cccc(OC(=O)Nc2ccc(Cl)cc2)c1)C(=O)OC | 79 to 80 °C | –
15 | COC(=O)C(Cc1ccc(OCCc2ccc3ccccc3c2)cc1)C(=O)OC [Example 29, dimethyl 4-[2-(2-naphthyl)ethoxy]benzyl-malonate] | 68.5 °C | –
16 | COC(=O)C(Cc1cccc(OCCc2ccc(Cl)cc2)c1)C(=O)OC [Example 22, dimethyl 3-[2-(4-chlorophenyl)ethoxy]-benzylmalonate] | – | Weight gain % (C57BL/KsJ db/db mice): +16 ▴ %; Reduction of glucose levels % (C57BL/KsJ db/db mice): −32 Δ %; Reduction of triglyceride levels % (C57BL/KsJ db/db mice): −47 ▴ %; Change in GPT levels % (C57BL/KsJ db/db mice): +38 ▴ %; Change in HDL-cholesterol levels % (C57BL/KsJ db/db mice): +37 ▴ %; lowest concentration of those assayed to induce a 40% increase in glucose consumption (3T3-L1 cells): 1 µM
17 | COC(=O)C(Cc1ccc(OC(=O)Nc2ccc([N+](=O)[O-])cc2)cc1)C(=O)OC | 128 to 130 °C | –
18 | COC(=O)C(Cc1ccc(OC(=O)Nc2ccc(Cl)cc2Cl)cc1)C(=O)OC | 84 °C | –
19 | COC(=O)Cc1ccc(OCCn2ccc3ccccc32)cc1 [Example 9, methyl 2-[4-[2-(1-indolyl)ethoxy]phenyl]acetate] | 50 to 52 °C | –
20 | O=C1NC(=O)C(Cc2cccc(OCCc3ccc(Cl)cc3)c2)S1 (centres unmarked) [Example 47, 5-[3-[2-(4-chlorophenyl)ethoxy]phenylmethyl]thiazolidine-2,4-dione] | 90 to 91 °C | –
